Publication PMC12396409, “Screening and hit evaluation of a microbial metabolite library against the pathogenic Plasmodium falciparum and Toxoplasma gondii parasites” (International Journal for Parasitology: Drugs and Drug …, 2025)
Like-named read-outs stand apart in the source and are kept apart here.

Legend:
[1] = tested on: P. falciparum 3D7 parasites; test: P. falciparum growth inhibition assay, 1-cycle (72 h treatment), SYBR DNA staining (library screen at 2 μg/mL and dose-response); format: cell-based, Plasmodium falciparum; conditions: 72 h; for activity at 2 µg/mL: Plasmodium falciparum
[2] = tested on: P. falciparum 3D7 parasites; test: P. falciparum growth inhibition assay, 2-cycle (120 h treatment), delayed-death screen and dose-response; format: cell-based, Plasmodium falciparum; conditions: 120 h; for activity at 2 µg/mL: Plasmodium falciparum
[3] = tested on: T. gondii RH strain (RH-Tub-eYFP) tachyzoites; test: microbe, parasite or virus in culture; format: cell-based, Toxoplasma gondii; conditions: 72 h; for percent parasite growth at 2 µg/mL: Toxoplasma gondii
[4] = library screen at 2 μg/mL, % growth, replicate 1
[5] = library screen at 2 μg/mL, % growth, replicate 2
[6] = 3D7, 72 h, P. falciparum, parasite screen 2 μg/mL, % growth, replicate 1, read-out: Pf_72h_%Growth_Rep1
[7] = 3D7, 72 h, P. falciparum, parasite screen 2 μg/mL, % growth, replicate 2, read-out: Pf_72h_%Growth_Rep2
[8] = 3D7, 120 h, P. falciparum, parasite screen 2 μg/mL, % growth, replicate 1, read-out: Pf_120h_%Growth_Rep1
[9] = 3D7, 120 h, P. falciparum, parasite screen 2 μg/mL, % growth, replicate 2, read-out: Pf_120h_%Growth_Rep2
[10] = T. gondii, parasite screen 2 μg/mL, % growth, replicate 1, read-out: Tg_72h_%Growth_Rep1
[11] = T. gondii, parasite screen 2 μg/mL, % growth, replicate 2, read-out: Tg_72h_%Growth_Rep2
[12] = P. falciparum, screen at 2 μg/mL, replicate 1
[13] = P. falciparum, screen at 2 μg/mL, replicate 2
[14] = T. gondii, screen at 2 μg/mL, replicate 1
[15] = T. gondii, screen at 2 μg/mL, replicate 2
[16] = P. falciparum, parasite screen 2 μg/mL, % growth, replicate 1
[17] = P. falciparum, parasite screen 2 μg/mL, % growth, replicate 2
[18] = T. gondii, 2 μg/mL, values are growth (% of control)

CC1=C[C@@H]2/C=C(/C)CCC(=O)[C@@H](O)CCC(=O)[C@]23C(=O)N[C@@H](CC(C)C)[C@@H]3[C@@H]1C [Aspochalasin M]
Pf_72h_%Growth_Rep1 [1, 4]: 78.34%
Pf_72h_%Growth_Rep2 [1, 5]: 81.89%
Pf_120h_%Growth_Rep1 [2, 4]: 80.74%
Pf_120h_%Growth_Rep2 [2, 5]: 79.20%
Tg_72h_%Growth_Rep1 [3, 4]: 143.85%
Tg_72h_%Growth_Rep2 [3, 5]: 96.90%

COc1ccc(C[C@H]2NC[C@H](O)[C@H]2OC(C)=O)cc1 [Anisomycin]
Pf_72h_%Growth_Rep1 [1, 4]: 2.13%
Pf_72h_%Growth_Rep2 [1, 5]: 2.45%
Pf_120h_%Growth_Rep1 [2, 4]: 9.82%
Pf_120h_%Growth_Rep2 [2, 5]: -15.33%
Tg_72h_%Growth_Rep1 [3, 4]: 0.93%
Tg_72h_%Growth_Rep2 [3, 5]: 1.73%

CO[C@H]1C[C@@H]2CC[C@@H](C)[C@@](O)(O2)C(=O)C(=O)N2CCCC[C@H]2C(=O)O[C@H]([C@H](C)C[C@@H]2CC[C@@H](O)[C@H](OC)C2)CC(=O)[C@H](C)/C=C(\C)[C@@H](O)[C@@H](OC)C(=O)[C@H](C)C[C@H](C)/C=C/C=C/C=C/1C [Rapamycin]
activity at 2 µg/mL [1, 6]: 86.2%
activity at 2 µg/mL [1, 7]: 116%
activity at 2 µg/mL [2, 8]: 104%
activity at 2 µg/mL [2, 9]: 102%
percent parasite growth at 2 µg/mL [3, 10]: 132%
percent parasite growth at 2 µg/mL [3, 11]: 75.7%

CCCC[C@]1([C@H](/C=C/C(C)=C/C(=O)O)OC(=O)CCC(=O)O)CC[C@]2(CC[C@H](C)[C@@H](C/C=C(C)/C=C/[C@H](O)[C@@H](C)/C=C/C(=O)O)O2)O1 [Reveromycin B]
activity at 2 µg/mL [1, 6]: 89%
activity at 2 µg/mL [1, 7]: 114%
activity at 2 µg/mL [2, 8]: 78.2%
activity at 2 µg/mL [2, 9]: 133%
percent parasite growth at 2 µg/mL [3, 10]: 139%
percent parasite growth at 2 µg/mL [3, 11]: 87.7%

O=C(O)/C=C/c1ccccc1 [Cinnamic acid]
activity at 2 µg/mL ([1]; 3D7, P. falciparum, screen at 2 μg/mL, replicate 1, read-out: Pf_72h_%Growth_Rep1): 90.3%
activity at 2 µg/mL ([1]; 3D7, P. falciparum, screen at 2 μg/mL, replicate 2, read-out: Pf_72h_%Growth_Rep2): 87.8%
activity at 2 µg/mL ([2]; 3D7, P. falciparum, screen at 2 μg/mL, replicate 1, read-out: Pf_120h_%Growth_Rep1): 147%
activity at 2 µg/mL ([2]; 3D7, P. falciparum, screen at 2 μg/mL, replicate 2, read-out: Pf_120h_%Growth_Rep2): 102%
percent parasite growth at 2 µg/mL ([3]; T. gondii, screen at 2 μg/mL, replicate 1, read-out: Tg_72h_%Growth_Rep1): 86.5%
percent parasite growth at 2 µg/mL ([3]; T. gondii, screen at 2 μg/mL, replicate 2, read-out: Tg_72h_%Growth_Rep2): 96.7%

Viridicatumtoxin
Pf_72h_%Growth_Rep1 [1, 12]: 2.34%
Pf_72h_%Growth_Rep2 [1, 13]: 2.82%
Pf_120h_%Growth_Rep1 [2, 12]: 6.51%
Pf_120h_%Growth_Rep2 [2, 13]: 13.13%
Tg_72h_%Growth_Rep1 [3, 14]: 122.40%
Tg_72h_%Growth_Rep2 [3, 15]: 65.71%

COc1ccc(C[C@H]2NC[C@H](O)[C@H]2O)cc1 [Deacetylanisomycin]
Pf_72h_%Growth_Rep1 [1, 12]: 64.17%
Pf_72h_%Growth_Rep2 [1, 13]: 43.98%
Pf_120h_%Growth_Rep1 [2, 12]: 36.01%
Pf_120h_%Growth_Rep2 [2, 13]: 30.23%
Tg_72h_%Growth_Rep1 [3, 14]: 5.55%
Tg_72h_%Growth_Rep2 [3, 15]: 18.56%

CC(C)[C@H]1C(=O)O[C@H](C(C)C)C(=O)N(C)[C@@H](C(C)C)C(=O)O[C@H](C(C)C)C(=O)N(C)[C@@H](C(C)C)C(=O)O[C@H](C(C)C)C(=O)N1C [Enniatin B]
activity at 2 µg/mL ([1]; 3D7, library screen at 2 μg/mL, % growth, replicate 1, read-out: Pf_72h_%Growth_Rep1): 4.68%
activity at 2 µg/mL ([1]; 3D7, library screen at 2 μg/mL, % growth, replicate 2, read-out: Pf_72h_%Growth_Rep2): 1.65%
activity at 2 µg/mL ([2]; 3D7, library screen at 2 μg/mL, % growth, replicate 1, read-out: Pf_120h_%Growth_Rep1): 2.26%
activity at 2 µg/mL ([2]; 3D7, library screen at 2 μg/mL, % growth, replicate 2, read-out: Pf_120h_%Growth_Rep2): 4.15%
percent parasite growth at 2 µg/mL ([3]; library screen at 2 μg/mL, % growth, replicate 1, read-out: Tg_72h_%Growth_Rep1): 3.2%
percent parasite growth at 2 µg/mL ([3]; library screen at 2 μg/mL, % growth, replicate 2, read-out: Tg_72h_%Growth_Rep2): 30.3%

CN1CCC2(c3cccc4c3NC3N(C)CCC43c3cccc4c3NC3N(C)CCC43C34CCN(C)C3Nc3c(C56CCN(C)C5Nc5ccccc56)cccc34)c3ccccc3NC12 (stereo not drawn) [Psychotridine]
Pf_72h_%Growth_Rep1 [1, 16]: 4.01%
Pf_72h_%Growth_Rep2 [1, 17]: -3.25%
Pf_120h_%Growth_Rep1 [2, 16]: 15.63%
Pf_120h_%Growth_Rep2 [2, 17]: 4.30%
Mean ([3]; T. gondii, 2 μg/mL, mean of both replicates, growth (% of control)): 39.57
Replicate 1 [3, 18]: 17.15
Replicate 2 [3, 18]: 61.99
Tg_72h_%Growth_Rep1 ([3]; T. gondii, parasite screen 2 μg/mL, % growth, replicate 1): 17.15%
Tg_72h_%Growth_Rep2 ([3]; T. gondii, parasite screen 2 μg/mL, % growth, replicate 2): 61.99%
